Measurements from patent US6248586A, “Antisense modulation of PKA catalytic subunit C-alpha expression” (Isis Pharmaceuticals, Inc., priority 1999, dated 2001).

Tested on: human PKA catalytic subunit C-alpha mRNA
Assay: Inhibition of PKA catalytic subunit C-alpha mRNA levels in oligonucleotide-treated cells, quantitative real-time PCR
Format: cell-based
Set-up: concentration or dose not given beside the values
Settings: Table 2, chimeric phosphorothioate 2'-MOE gapmers, averaged from two experiments
Procedure: when cells reached 80% confluency, they were treated with oligonucleotide. For cells grown in 96-well plates, wells were washed once with 200 μL. OPTI-MEM™-1 reduced-serum medium (Gibco BRL) and then treated with 130 μL of OPTI-MEM™-1 containing 3.75 μg/mL LIPOFECTIN™ (Gibco BRL) and the desired concentration of oligonucleotide. After 4-7 hours of treatment, the medium was replaced with fresh medium. Cells were harvested 16-24 hours after oligonucleotide treatment.
Poly(A)+ mRNA was isolated according to Miura et al., Clin. Chem., 1996, 42, 1758-1764. Other methods for poly(A)+ mRNA isolation are taught in, for example, Ausubel, F. M. et al., Current Protocols in Molecular Biology, Volume 1, pp. 4.5.1-4.5.3, John Wiley & Sons, Inc., 1993. Briefly, for cells grown on 96-well plates, growth medium was removed from the cells and each well was washed with 200 μL cold PBS. 60 μL lysis buffer (10 mM Tris-HCl, pH 7.6, 1 mM EDTA, 0.5 M NaCl, 0.5% NP-40, 20 mM vanadyl-ribonucleoside complex) was added to each well, the plate was gently agitated and then incubated at room temperature for five minutes. 55 μL of lysate was transferred to Oligo d(T) coated 96-well plates (AGCT Inc., Irvine Calif.). Plates were incubated for 60 minutes at room temperature, washed 3 times with 200 μL of wash buffer (10 mM Tris-HCl pH 7.6, 1 mM EDTA, 0.3 M NaCl). After the final wash, the plate was blotted on paper towels to remove excess wash buffer and then air-dried for 5 minutes. 60 μL of elution buffer (5 mM Tris-HCl pH 7.6), preheated to 70° C. was added to each well, the plate was incubated on a 90° C. hot plate for 5 minutes, and the eluate was then transferred to a fresh 96-well plate.
Quantitat:ion of PKA catalytic subunit C-alpha mRNA levels was determined by real-time quantitative PCR using the ABI PRISM™ […] Sequence Detection System (PE-Applied Biosystems, Foster City, Calif.) according to manufacturer's instructions. This is a closed-tube, non-gel-based, fluorescence detection system which allows high-throughput quantitation of polymerase chain reaction (PCR) products in real-time. As opposed to standard PCR, in which amplification products are quantitated after the PCR is completed, products in real-time quantitative PCR are quantitated as they accumulate. This is accomplished by including in the PCR reaction an oligonucleotide probe that anneals specifically between the forward and reverse PCR primers, and contains two fluorescent dyes. A reporter dye (e.g., JOE, FAM, or VIC, obtained from either Operon Technologies Inc., Alameda, Calif. or PE-Applied Biosystems, Foster City, Calif.) is attached to the 5' end of the probe and a quencher dye (e.g., TAMRA, obtained from either Operon Technologies Inc., Alameda, Calif. or PE-Applied Biosystems, Foster City, Calif.) is attached to the 3' end of the probe. When the probe and dyes are intact, reporter dye emission is quenched by the proximity of the 3' quencher dye. During amplification, annealing of the probe to the target sequence creates a substrate that can be cleaved by the 5'-exonuclease activity of Taq polymerase. […] With each cycle, additional reporter dye molecules are cleaved from their respective probes, and the fluorescence intensity is monitored at regular intervals by laser optics built into the ABI PRISM™ 7700 Sequence Detection System. In each assay, a series of parallel reactions containing serial dilutions of mRNA from untreated control samples generates a standard curve that is used to quantitate the percent inhibition after antisense oligonucleotide treatment of test samples.
PCR reagents were obtained from PE-Applied Biosystems, Foster City, Calif. […]

Row | Substance | % Inhibition of PKA catalytic subunit C-alpha mRNA levels
1 | 102614 (antisense CCCATCGCGGCGGCGGCGGC; chemistry not given here) [compound 102614] | 77%
2 | 102619 (antisense TGCCCATCGCGGCGGCGGCG; chemistry not given here) [compound 102619] | 70%
3 | 102624 (antisense GTTGCCCATCGCGGCGGCGG; chemistry not given here) [compound 102624] | 81%
4 | 102629 (antisense GCGTTGCCCATCGCGGCGGC; chemistry not given here) [compound 102629] | 79%
5 | 102633 (antisense CGGCGTTGCCCATCGCGGCG; chemistry not given here) [compound 102633] | 81%
6 | 102636 (antisense GGCGGCGTTGCCCATCGCGG; chemistry not given here) [compound 102636] | 41%
7 | 102640 (antisense GCGGCGGCGTTGCCCATCGC; chemistry not given here) [compound 102640] | 87%
8 | 102645 (antisense CGGCGGCGGCGTTGCCCATC; chemistry not given here) [compound 102645] | 84%
9 | 102649 (antisense GGCGGCGGCGGCGTTGCCCA; chemistry not given here) [compound 102649] | 85%
10 | 102653 (antisense ATTCTTTCACGCTCTCCTGC; chemistry not given here) [compound 102653] | 55%
11 | 102657 (antisense CAAACTGATCCAAGTGGGCT; chemistry not given here) [compound 102657] | 73%
12 | 102660 (antisense CCAGCATCACCCGCCCGAAG; chemistry not given here) [compound 102660] | 82%
13 | 102664 (antisense CTTCTGTTTGTCGAGGATCT; chemistry not given here) [compound 102664] | 76%
14 | 102668 (antisense GCTTGCAGGATGCGCTTTTC; chemistry not given here) [compound 102668] | 76%
15 | 102672 (antisense GTTGTCCTTGAAGGAGAACT; chemistry not given here) [compound 102672] | 28%
16 | 102676 (antisense GAACATCTCCCCGCCGGGCA; chemistry not given here) [compound 102676] | 92%
17 | 102680 (antisense TAGATGAGATCCAGCGAGTG; chemistry not given here) [compound 102680] | 33%
18 | 102684 (antisense GCGGCCCTTCACGCGCTTGG; chemistry not given here) [compound 102684] | 63%

Row | Substance | % Inhibition of PKA catalytic subunit C-alpha mRNA levels
19 | 102688 (antisense TCTGCGAAGAAGGGCGGGTA; chemistry not given here) [compound 102688] | 52%
20 | 102692 (antisense TCCTTCAAGTCAGAGCTGAA; chemistry not given here) [compound 102692] | 67%
21 | 102696 (antisense AAACCACTTGTGGTTCTTGA; chemistry not given here) [compound 102696] | 71%
22 | 102700 (antisense CTTCCTCATAGTCGTCAAAG; chemistry not given here) [compound 102700] | 44%
23 | 102703 (antisense GGCATGCCCCTAAAACTCAG; chemistry not given here) [compound 102703] | 26%
24 | 102707 (antisense GGAGCAGCTGGTGTTTCTGT; chemistry not given here) [compound 102707] | 73%
25 | 102711 (antisense TTGGCGCTTCGTTCATTTGC; chemistry not given here) [compound 102711] | 60%
26 | 102716 (antisense AAGCAACCCACTGAACATGT; chemistry not given here) [compound 102716] | 63%
27 | 102720 (antisense GCTTCTCTTTAAAATGGATT; chemistry not given here) [compound 102720] | 56%
28 | 102724 (antisense ACCCTCGCAGGATTGGCAGA; chemistry not given here) [compound 102724] | 55%
29 | 102727 (antisense CGCTGCTGGGAGGAAAGACT; chemistry not given here) [compound 102727] | 60%
30 | 102731 (antisense TGCAGGGATGCCCTCCCCAC; chemistry not given here) [compound 102731] | 54%
31 | 102736 (antisense CCTTGAACCCCGGGCCGTGG; chemistry not given here) [compound 102736] | 65%
32 | 102738 (antisense CAGGCAGCCCCTCCCCAGCA; chemistry not given here) [compound 102738] | 31%
33 | 102741 (antisense AGCACAAATGAGAAAGTGGG; chemistry not given here) [compound 102741] | 53%
34 | 102744 (antisense TGGCTCCCCAGCGGCTCCCC; chemistry not given here) [compound 102744] | 77%
35 | 102747 (antisense CACACAGGTTGAATCGCCCC; chemistry not given here) [compound 102747] | 81%
36 | 102750 (antisense TAGTTTTCAAATATGTTTAC; chemistry not given here) [compound 102750] | 66%
